Columns and labels:
[1] = biological target: dopaminergic receptors D3 (Homo sapiens, UniProt P35462); experiment: Radioligand binding assay, dopaminergic D3 receptors; conditions: test compound 1×10^−6 M
From the text: (§1) The specific ligand binding to the receptors is defined as the difference between the total binding and the non-specific binding determined in the presence of the excess of unlabelled ligand.
(§2) The results are expressed as a percent of control specific binding ((measured specific binding/control specific binding)×100) and as a percent inhibition of control specific binding (100−((measured specific binding/control specific binding)×100)) obtained in the presence of the test compounds. The specific ligand binding to the receptors is defined as the difference between the total binding and the nonspecific binding determined in the presence of an excess of unlabelled ligand. Scintillation counting was the method of detection of ligand binding. The IC50 values (concentration causing a half-maximal inhibition of control specific binding) were determined by non-linear regression analysis of the competition curves generated with mean replicate values using Hill equation curve fitting (Y=D+[(A−D)/(1+(C/C50)nH)], where Y=specific binding, D=minimum specific binding, A=maximum specific binding, C=compound concentration, C50=IC50, and nH=slope factor). This analysis was performed using a software developed at Cerep (Hill software) and validated by comparison with data generated by the commercial software SigmaPlot® 4.0 for Windows® (© 1997 by SPSS Inc.). The inhibition constants (Ki) were calculated using the Cheng Prusoff equation (Ki=IC50/(1+(L/KD)), where L=concentration of radioligand in the assay, and KD=affinity of the radioligand for the receptor). A scatchard plot was used to determine the Kd.
(§3) Experimental conditions for tests are given in Table 1, the results of tests for representative compounds are given in Tables 2a and 2b (receptors D2 and D3) and in Table 3 (receptors D4).

[2] = biological target: T1, serotonin transporter (SERT) (Homo sapiens, UniProt P31645); experiment: Radioligand binding assay, serotonin transporter (SERT); conditions: binding assay, test compound 1×10^−6 M
T1 construct: expressed in transfected cells; host or cells: CHO cells
From the text: as §1, §2
Experimental conditions for tests are given in Table 12, and results of tests for representative compounds are given in Tables 13a and 13b.

5-HT6 receptor = biological target: T2, 5-HT6 receptor (Homo sapiens, UniProt P50406); experiment: Radioligand binding assay, serotoninergic 5-HT6 receptors; conditions: binding assay result in %, Table 5a;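 further: test compound at 1 µM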
T2 construct: purchased PerkinElmer
From the text: as §1, §2
(§4) Experimental conditions for tests are given in Table 4, and results of tests for representative compounds of the invention are given in Table 5a and 5b (receptors 5-HT1A, 5-HT2A, 5-HT6 and 5-HT7) and in Table 6 (receptors 5-HT2C).
5-HT6: Bryan L. Roth. Assay Protocol Book. University of North Carolina At Chapel Hill. National Institute of Mental Health. Psychoactive Drug Screening Program. Available on-line at 31 Aug. 2008: http://pdsp.med.unc.edu/UNC-CH %20Protocol%20Book.pdf

5-HT2A receptor = biological target: T3, 5-HT2A receptor (Homo sapiens, UniProt P28223); experiment: Radioligand binding assay, serotoninergic 5-HT2A receptors; conditions: binding assay result in %, Table 5a
T3 construct: purchased PerkinElmer
From the text: as §1, §2
5-HT2A: Bryan L. Roth. Assay Protocol Book. University of North Carolina At Chapel Hill. National Institute of Mental Health. Psychoactive Drug Screening Program. Available on-line at 31 Aug. 2008: http://pdsp.med.unc.edu/UNC-CH%20Protocol%20Book.pdf

5-HT7 receptor = biological target: T4, 5-HT7 receptor (Homo sapiens, UniProt P34969); experiment: Radioligand binding assay, serotoninergic 5-HT7 receptors; conditions: binding assay result in %, Table 5a;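 further: test compound at 1 µM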
T4 construct: purchased PerkinElmer
From the text: as §1, §2, §4
5-HT7: Bryan L. Roth. Assay Protocol Book. University of North Carolina At Chapel Hill. National Institute of Mental Health. Psychoactive Drug Screening Program. Available on-line at 31 Aug. 2008: http://pdsp.med.unc.edu/UNC-CH %20Protocol%20Book.pdf

[3] = biological target: dopaminergic receptors D2 (Homo sapiens, UniProt P14416); experiment: Radioligand binding assay, dopaminergic D2 receptors; conditions: binding assay, test compound 1×10^−6 M
From the text: as §1, §2, §3

[4] = biological target: T5, 5-HT1A receptor (rat hippocampus) (Rattus norvegicus, UniProt P19327); experiment: Radioligand binding assay, serotoninergic 5-HT1A receptors; conditions: binding assay result in %, Table 5a;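 further: test compound at 1 µM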
T5 construct: hippocampus; from tissue; host or cells: rat hippocampus
T5 sequence (P19327 1-422): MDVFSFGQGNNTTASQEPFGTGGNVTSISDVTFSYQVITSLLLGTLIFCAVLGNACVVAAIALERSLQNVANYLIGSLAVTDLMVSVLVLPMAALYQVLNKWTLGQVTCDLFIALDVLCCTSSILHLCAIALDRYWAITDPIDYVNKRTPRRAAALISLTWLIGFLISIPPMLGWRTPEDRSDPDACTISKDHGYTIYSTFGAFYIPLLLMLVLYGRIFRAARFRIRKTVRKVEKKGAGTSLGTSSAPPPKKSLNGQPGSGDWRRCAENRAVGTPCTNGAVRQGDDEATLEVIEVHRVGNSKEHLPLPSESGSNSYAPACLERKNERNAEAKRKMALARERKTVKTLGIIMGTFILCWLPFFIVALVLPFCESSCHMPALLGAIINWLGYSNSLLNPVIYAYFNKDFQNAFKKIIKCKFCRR
From the text: as §1, §2, §4

T4 sequence (P34969 whole entry): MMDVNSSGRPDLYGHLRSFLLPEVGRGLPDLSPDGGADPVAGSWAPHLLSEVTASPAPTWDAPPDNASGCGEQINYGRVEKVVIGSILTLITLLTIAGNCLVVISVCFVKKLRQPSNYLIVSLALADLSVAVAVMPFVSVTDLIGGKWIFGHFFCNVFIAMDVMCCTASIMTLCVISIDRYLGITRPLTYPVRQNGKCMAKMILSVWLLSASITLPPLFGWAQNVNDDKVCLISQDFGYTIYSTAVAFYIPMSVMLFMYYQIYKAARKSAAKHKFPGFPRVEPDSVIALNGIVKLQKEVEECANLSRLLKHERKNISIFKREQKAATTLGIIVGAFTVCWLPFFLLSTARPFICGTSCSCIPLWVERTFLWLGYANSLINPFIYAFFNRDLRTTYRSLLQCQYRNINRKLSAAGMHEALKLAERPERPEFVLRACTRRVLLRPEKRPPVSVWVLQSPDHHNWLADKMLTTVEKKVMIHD
T3 sequence (P28223 whole entry): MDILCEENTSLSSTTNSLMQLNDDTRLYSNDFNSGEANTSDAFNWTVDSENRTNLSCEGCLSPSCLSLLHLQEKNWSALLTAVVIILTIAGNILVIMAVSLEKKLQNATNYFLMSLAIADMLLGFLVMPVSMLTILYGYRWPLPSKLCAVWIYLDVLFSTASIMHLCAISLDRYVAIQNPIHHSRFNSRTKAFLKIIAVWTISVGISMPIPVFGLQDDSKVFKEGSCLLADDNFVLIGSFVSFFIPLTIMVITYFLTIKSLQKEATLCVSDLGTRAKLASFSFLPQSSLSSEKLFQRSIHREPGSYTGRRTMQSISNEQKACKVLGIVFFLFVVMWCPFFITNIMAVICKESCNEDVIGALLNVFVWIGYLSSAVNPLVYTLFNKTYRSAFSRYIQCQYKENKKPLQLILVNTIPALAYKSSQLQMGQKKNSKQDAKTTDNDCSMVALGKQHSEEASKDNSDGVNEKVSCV
T1 sequence (P31645 whole entry): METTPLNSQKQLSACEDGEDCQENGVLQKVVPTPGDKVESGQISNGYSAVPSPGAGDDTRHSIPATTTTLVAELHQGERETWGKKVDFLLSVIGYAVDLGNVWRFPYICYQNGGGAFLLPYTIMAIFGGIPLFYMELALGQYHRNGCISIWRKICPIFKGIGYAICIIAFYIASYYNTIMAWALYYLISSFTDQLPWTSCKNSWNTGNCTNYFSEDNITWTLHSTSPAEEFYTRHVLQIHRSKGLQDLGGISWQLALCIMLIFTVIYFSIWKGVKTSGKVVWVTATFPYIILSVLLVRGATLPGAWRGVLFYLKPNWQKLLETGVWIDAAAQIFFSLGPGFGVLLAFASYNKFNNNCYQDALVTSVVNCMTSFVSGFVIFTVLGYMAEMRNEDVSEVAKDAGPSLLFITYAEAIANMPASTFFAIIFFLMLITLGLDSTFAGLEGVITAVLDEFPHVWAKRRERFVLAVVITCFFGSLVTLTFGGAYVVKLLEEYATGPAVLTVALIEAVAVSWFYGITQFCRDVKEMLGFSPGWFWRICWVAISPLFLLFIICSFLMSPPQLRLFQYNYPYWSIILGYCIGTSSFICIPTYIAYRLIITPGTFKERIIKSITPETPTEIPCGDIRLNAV
Sequence of dopaminergic receptors D3 (P35462 whole entry): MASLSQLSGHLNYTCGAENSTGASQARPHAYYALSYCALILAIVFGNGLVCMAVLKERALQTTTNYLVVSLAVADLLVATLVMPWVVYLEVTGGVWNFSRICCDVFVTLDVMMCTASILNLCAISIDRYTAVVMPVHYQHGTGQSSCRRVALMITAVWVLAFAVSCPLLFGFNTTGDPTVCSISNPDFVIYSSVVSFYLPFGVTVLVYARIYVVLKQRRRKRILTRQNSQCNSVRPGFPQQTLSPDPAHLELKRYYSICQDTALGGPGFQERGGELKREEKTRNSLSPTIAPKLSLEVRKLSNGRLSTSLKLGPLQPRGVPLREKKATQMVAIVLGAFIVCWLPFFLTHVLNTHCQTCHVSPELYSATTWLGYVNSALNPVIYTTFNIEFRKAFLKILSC
T2 sequence (P50406 whole entry): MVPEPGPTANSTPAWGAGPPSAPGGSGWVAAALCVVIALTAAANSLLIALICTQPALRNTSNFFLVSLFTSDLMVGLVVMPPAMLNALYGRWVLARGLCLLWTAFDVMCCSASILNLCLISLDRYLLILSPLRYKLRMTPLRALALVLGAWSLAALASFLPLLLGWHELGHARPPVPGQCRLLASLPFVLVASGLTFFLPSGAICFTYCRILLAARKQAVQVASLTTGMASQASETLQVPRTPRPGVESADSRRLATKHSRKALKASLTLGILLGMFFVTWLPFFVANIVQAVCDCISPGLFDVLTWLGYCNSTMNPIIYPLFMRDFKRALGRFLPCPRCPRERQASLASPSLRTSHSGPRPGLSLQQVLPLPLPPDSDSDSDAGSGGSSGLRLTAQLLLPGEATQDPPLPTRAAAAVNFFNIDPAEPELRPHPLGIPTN
Sequence of dopaminergic receptors D2 (P14416 whole entry): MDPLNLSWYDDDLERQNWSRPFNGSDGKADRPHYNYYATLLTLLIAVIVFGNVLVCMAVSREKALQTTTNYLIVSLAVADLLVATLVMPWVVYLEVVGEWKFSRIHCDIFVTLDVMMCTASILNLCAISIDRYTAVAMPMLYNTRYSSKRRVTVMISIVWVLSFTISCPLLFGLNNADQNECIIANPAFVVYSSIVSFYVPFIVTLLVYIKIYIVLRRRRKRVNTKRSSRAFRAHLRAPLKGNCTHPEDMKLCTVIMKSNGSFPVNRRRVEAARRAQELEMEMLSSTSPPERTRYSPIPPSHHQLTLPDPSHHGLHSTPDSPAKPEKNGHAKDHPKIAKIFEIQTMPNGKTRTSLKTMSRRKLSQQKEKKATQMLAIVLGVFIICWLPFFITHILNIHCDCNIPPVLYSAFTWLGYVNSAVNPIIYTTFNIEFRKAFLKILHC

| Compound | inhibition at 1 µM [1] [%] | inhibition at 1 µM [2] [%] | inhibition at 1 µM (5-HT6 receptor) [%] | inhibition at 1 µM (5-HT2A receptor) [%] | inhibition at 1 µM (5-HT7 receptor) [%] | inhibition at 1 µM [3] [%] | inhibition at 1 µM [4] [%] | D3 [%] [1] [%] | SERT [%] [2] [%] | 5-HT6 [%] (5-HT6 receptor) | 5-HT2A [%] (5-HT2A receptor) | 5-HT7 [%] (5-HT7 receptor) | D2 [%] [3] [%] | 5-HT1A [%] [4] [%] |
| --- | --- | --- | --- | --- | --- | --- | --- | --- | --- | --- | --- | --- | --- | --- |
| O=S(=O)(NCC1CCN(CCCc2noc3cc(F)ccc23)C1)c1ccccc1 (stereo not drawn) [Compound 245, N-[[1-[3-(6-Fluoro-1,2-benzoxazol-3-yl)propyl]pyrrolidin-3-yl]methyl]benzenesulphonamide] | 40 | 18 | 57 | 73 | 81 | -4 | 35 | – | – | – | – | – | – | – |
| O=S(=O)(NC1CCN(CCCc2noc3cc(F)ccc23)CC1)c1ccccc1 [Compound 32, N-[1-[3-(6-Fluoro-1,2-benzoxazol-3-yl)propyl]-4-piperidine]benzene-sulphonamide] | – | – | – | – | – | – | – | 57 | 5 | 63 | 83 | 92 | 63 | 37 |
| N-[[1-[3-(6-Fluoro-1,2-benzoxazol-3-yl)propyl]pyrrolidin-3-yl]methyl]-1-methyl-indole-5-sulphonamide [Compound 258] | – | – | – | – | – | – | – | 43 | 25 | 89 | 98 | 78 | 92 | 64 |
| O=S(=O)(NCC1CCN(CCCc2noc3cc(F)ccc23)C1)c1ccc2c(c1)OCO2 (stereo not drawn) [Compound 235, N-[[1-[3-(6-Fluoro-1,2-benzoxazol-3-yl)propyl]pyrrolidin-3-yl]methyl]-1,3-benzodioxole-5-sulphonamide] | 41 | 11 | 62 | 91 | 81 | 31 | 14 | – | – | – | – | – | – | – |
| COc1cccc(S(=O)(=O)NC2CCN(CCCc3noc4cc(F)ccc34)C2)c1 (stereo not drawn) [Compound 17, N-[1-[3-(6-Fluoro-1,2-benzoxazol-3-yl)propyl]pyrrolidin-3-yl]-3-methoxybenzenesulphonamide] | 20 | 52 | 76 | 94 | 80 | 80 | 23 | – | – | – | – | – | – | – |
| 4-Fluoro-N-[[1-[3-(6-fluoro-1,2-benzoxazol-3-yl)propyl]azetidin-3-yl]methyl]benzenesulphonamide [Compound 147] | – | – | – | – | – | – | – | 74 | 24 | 86 | 95 | 89 | 88 | 60 |
| Cn1ccc2c(S(=O)(=O)NC3CCN(CCCc4noc5cc(F)ccc45)CC3)cccc21 [Compound 329, N-[1-[3-(6-Fluoro-1,2-benzoxazol-3-yl)propyl]-4-piperidyl]-1-methyl-indole-4-sulphonamide] | 68 | 43 | 62 | 94 | 97 | 84 | 49 | – | – | – | – | – | – | – |
| O=S(=O)(NCC1CCN(CCCc2noc3cc(F)ccc23)C1)c1cccc(O)c1 (stereo not drawn) [Compound 254, N-[[1-[3-(6-Fluoro-1,2-benzoxazol-3-yl)propyl]pyrrolidin-3-yl]methyl]-3-hydroxy-benzenesulphonamide] | 34 | 10 | 78 | 98 | 102 | 75 | 49 | – | – | – | – | – | – | – |
| O=S(=O)(NC1CCN(CCCc2noc3cc(F)ccc23)C1)c1ccc(Br)cc1 (stereo not drawn) [Compound 10, 4-Bromo-N-[1-[3-(6-fluoro-1,2-benzoxazol-3-yl)propyl]pyrrolidin-3-yl]benzenesulphonamide] | 49 | -2 | 85 | 96 | 86 | 99 | 20 | – | – | – | – | – | – | – |
| CC(C)(C)c1ccc(S(=O)(=O)NC2CCN(CCCc3noc4cc(F)ccc34)C2)cc1 (stereo not drawn) [Compound 14, 4-tert-Butyl-N-[1-[3-(6-fluoro-1,2-benzoxazol-3-yl)propyl]pyrrolidin-3-yl]benzenesulphonamide] | 90 | -3 | 82 | 80 | 76 | 100 | 24 | – | – | – | – | – | – | – |
| O=S(=O)(NC1CCN(CCCc2noc3cc(F)ccc23)CC1)c1cc2ccccc2s1 [Compound 324, N-[1-[3-(6-Fluoro-1,2-benzoxazol-3-yl)propyl]-4-piperidyl]benzothiophene-2-sulphonamide] | 41 | 18 | 78 | 99 | 101 | 77 | 49 | – | – | – | – | – | – | – |
| Cc1cc(S(=O)(=O)NCC2CCN(CCCc3noc4cc(F)ccc34)C2)c(C)s1 (stereo not drawn) [Compound 262, N-[[1-[3-(6-Fluoro-1,2-benzoxazol-3-yl)propyl]pyrrolidin-3-yl]methyl]-2,5-dimethyl-thiophene-3-sulphonamide] | 44 | 26 | 69 | 85 | 92 | 26 | 25 | – | – | – | – | – | – | – |
| CC(C)(C)c1ccc(S(=O)(=O)NCC2CN(CCCc3noc4cc(F)ccc34)C2)cc1 [Compound 141, 4-tert-Butyl-N-[[1-[3-(6-fluoro-1,2-benzoxazol-3-yl)propyl]azetidin-3-yl]methyl]benzenesulphonamide] | 58 | -10 | 92 | 85 | 80 | 74 | 9 | – | – | – | – | – | – | – |
| O=S(=O)(NCC1CCN(CCCc2noc3cc(F)ccc23)C1)c1ccc(F)c(Cl)c1 (stereo not drawn) [Compound 263, 3-Chloro-4-fluoro-N-[[1-[3-(6-fluoro-1,2-benzoxazol-3-yl)propyl]pyrrolidin-3-yl]methyl]benzenesulphonamide] | 71 | 11 | 85 | 97 | 92 | 59 | 19 | – | – | – | – | – | – | – |
| O=S(=O)(NCC1CN(CCCc2noc3cc(F)ccc23)C1)c1cc2ccccc2s1 [Compound 153, N-[[1-[3-(6-Fluoro-1,2-benzoxazol-3-yl)propyl]azetidin-3-yl]methyl]-benzothiophene-2-sulphonamide] | 61 | – | 80 | 96 | 86 | 82 | 55 | – | 21 | – | – | – | – | – |
